For 64 molecules, active concentration results are on record in PubChem BioAssay AID977613 (Broad Institute, 2014).

The assay has as its system Broad 7084-01 inhibitor HTS, set 2. Put plainly: single-concentration hits, screen 7084 set 2 (AID 977613).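 Note: host cells are infected with parasite promastigotes that become internalized.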

Activity calls are given as the source filed them. The rule behind the calls is not given here. Where only a bound is given, the exact number is not on record here.

On to `COc1ccc2c3c([nH]c2c1)[C@H](CO)N(S(=O)(=O)c1ccc(C)cc1)CC31CCN(Cc2nccs2)CC1`, for which the active concentration is > 10 µM (inactive). As for `O=C(C[C@H]1CC[C@H]2[C@@H](COC[C@@H](O)CN2C(=O)c2ccccc2)O1)Nc1ccc(-c2ccccc2)cc1`, the active concentration was > 10 µM (inactive). Then `O=C(Nc1cccc(Cl)c1)N1C[C@@H]2[C@H](c3ccccc31)[C@H](CO)N2CC1CCOCC1`, with > 10 µM (inactive); and `OC[C@H]1[C@H]2c3ccccc3NC[C@H]2N1Cc1ccccc1Cl`, with > 10 µM (inactive). In the case of `O=C(C[C@H]1CC[C@@H]2[C@H](COC[C@@H](O)CN2Cc2cc(F)ccc2F)O1)NCc1ccc(F)cc1`, the active concentration is > 10 µM (inactive).

For the molecule `O=C(Nc1ccccc1)N1C[C@@H]2[C@H](c3ccccc31)[C@H](CO)N2Cc1ccccc1Cl`, the active concentration is > 10 µM (inactive).

Regarding `N#C[C@@H]1[C@H](c2ccccc2-c2cccc(F)c2)[C@H](CO)N1S(=O)(=O)c1cccc(F)c1`, the active concentration is > 10 µM (inactive). Regarding `COc1cccc(NC(=O)N2C[C@@H](O)COC[C@H]3O[C@H](CC(=O)NC4CCC4)CC[C@@H]32)c1`, the active concentration is > 10 µM (inactive). Take `O=C(C[C@@H]1CC[C@@H]2[C@H](COC[C@@H](O)CN2Cc2ccc3c(c2)OCO3)O1)Nc1ccccc1`: the active concentration is > 10 µM (inactive). As for `OC[C@@H]1[C@H](c2ccc(Br)cc2)[C@H]2CN(Cc3ccccn3)CCCCN12`, the active concentration was > 10 µM (inactive).

Turning to `O=C(c1ccccn1)N1C[C@@H]2[C@H](c3ccccc31)[C@H](CO)N2C(=O)Nc1ccccc1F`, the active concentration is > 10 µM (inactive). The same measure for `COc1ccc(-c2ccccc2[C@H]2[C@@H](C#N)N(C(=O)C3CCCCC3)[C@H]2CO)cc1`: > 10 µM (inactive); for `CCCC#Cc1ccc([C@H]2[C@@H](CO)N3C(=O)CN(C(=O)CN4CCOCC4)C[C@@H]23)cc1`: > 10 µM (inactive).

`O=C(Nc1ccc(F)cc1)N1[C@@H]2CNc3ccccc3[C@@H]2[C@@H]1CO`: the active concentration was > 10 µM (inactive). For `O=C(C1CCC1)N1CC2(C1)[C@H](c1ccccc1)[C@H](CO)N2C(=O)c1ccccn1`, the active concentration is > 10 µM (inactive). With `CCC(=O)N1CC(=O)N2[C@H](CO)[C@H](c3ccc(-c4ccc(C#N)cc4)cc3)[C@H]2C1`, the active concentration is > 10 µM (inactive). Then `CN1CCN(C(=O)C[C@@H]2CC[C@@H]3[C@H](COC[C@@H](O)CN3CC3CC3)O2)CC1`, with > 10 µM (inactive); and `Cc1ccccc1S(=O)(=O)N1CC[C@@H]2[C@@H](CO)Nc3ccc(C#Cc4ccccc4)cc3[C@@H]21`, with > 10 µM (inactive); and `CCS(=O)(=O)N1CC2(C1)CN(S(=O)(=O)c1ccccc1)[C@H](CO)c1c2c2ccc(OC)cc2n1C`, with > 10 µM (inactive). As to `COc1cccc(S(=O)(=O)N2CCCCN3[C@H](C2)[C@H](c2ccc(C#CCC(C)C)cc2)[C@@H]3CO)c1`, the active concentration is > 10 µM (inactive). Then `O=C(C[C@H]1CC[C@@H]2[C@H](COC[C@H](O)CN2Cc2cc(F)cc(F)c2)O1)NC1CCC1`, with > 10 µM (inactive). The same measure for `O=C([C@H]1[C@H](CO)[C@H]2Cn3c(cccc3=O)[C@@H]1N2Cc1cocn1)N1CCCCC1`: > 10 µM (inactive). For the molecule `CC(C)C#Cc1ccc([C@@H]2[C@H](CO)N3C(=O)CN(C(=O)c4ccc5c(c4)OCO5)C[C@@H]23)cc1`, the active concentration is > 10 µM (inactive). For the molecule `O=C(C[C@@H]1CC[C@H]2[C@@H](COC[C@@H](O)CN2Cc2cc(F)cc(F)c2)O1)NC1CCC1`, the active concentration is > 10 µM (inactive). Take `Cn1cnc(CCNC(=O)C[C@@H]2CC[C@@H]3[C@H](COC[C@@H](O)CN3C(=O)C3CC3)O2)c1`: the active concentration was > 10 µM (inactive).

As for `CC(C)NC(=O)N1[C@H](CO)[C@H](c2ccccc2)C12CN(C(=O)Cc1cccnc1)C2`, the active concentration is > 10 µM (inactive). Take `O=C(C[C@@H]1CC[C@H]2[C@@H](COC[C@@H](O)CN2Cc2ccc3c(c2)OCO3)O1)Nc1ccccc1`: the active concentration is > 10 µM (inactive). Take `COc1cccc(-c2ccccc2[C@H]2[C@@H](C#N)N(C(=O)c3ccccn3)[C@@H]2CO)c1`: the active concentration was > 10 µM (inactive). Regarding `CCC(=O)N1CC2(C1)[C@H](c1ccc(-c3ccc(C)cc3)cc1)[C@@H](CO)N2S(=O)(=O)CC`, the active concentration is > 10 µM (inactive).

With `CC(C)C#Cc1ccc([C@H]2[C@@H](CO)N3C(=O)CN(C(=O)Cc4ccccc4)C[C@H]23)cc1`, the active concentration was > 10 µM (inactive).

On to `O=C(Nc1nccs1)[C@@H]1[C@@H](CO)[C@@H]2Cn3c(cccc3=O)[C@H]1N2C(=O)C1CCCC1`, for which the active concentration was > 10 µM (inactive). Then `O=S(=O)(c1ccccc1)N1CCCCN2[C@@H](CO)[C@@H](c3ccc(C#CC4CCCC4)cc3)[C@@H]2C1`, with > 10 µM (inactive); and `C/C=C/c1ccc([C@@H]2[C@@H](CO)N3C(=O)CN(Cc4ccc(F)cc4)C[C@@H]23)cc1`, with > 10 µM (inactive); and `CC(=O)N1CCCCN2[C@@H](CO)[C@H](c3ccc(-c4ccccc4)cc3)[C@@H]2C1`, with > 10 µM (inactive). For the molecule `O=C(C[C@H]1CC[C@H]2[C@@H](COC[C@@H](O)CN2CC2CC2)O1)NCc1ccc(Cl)cc1`, the active concentration was > 10 µM (inactive). The same measure for `O=C1CNC[C@@H]2[C@@H](c3ccc(-c4ccccc4F)cc3)[C@H](CO)N12`: > 10 µM (inactive).

Consider `O=C1CNC[C@H]2[C@@H](c3ccc(-c4ccccc4F)cc3)[C@H](CO)N12`, for which the active concentration is > 10 µM (inactive). For `O=C(C1CCCCC1)N1CC2(C1)[C@@H](c1ccccc1)[C@H](CO)N2C(=O)c1cccnc1`, the active concentration is > 10 µM (inactive). Consider `COc1ccc(C#Cc2ccc3c(c2)[C@H]2[C@H](CCN2C(=O)Nc2ccc(C(F)(F)F)cc2)[C@@H](CO)N3C)cc1`, for which the active concentration was > 10 µM (inactive). `CC(=O)N1[C@@H](CO)[C@@H](c2ccc(C3=CCCC3)cc2)C12CN(C(=O)NC(C)C)C2`: the active concentration was > 10 µM (inactive). Then `CCS(=O)(=O)Nc1ccc2c(c1)C(=O)N(C)[C@H]1CC[C@@H](CC(=O)NCCOC)O[C@H]1CO2`, with > 10 µM (inactive); and `CN1CCCCN2[C@H](C1)[C@H](c1ccc(-c3ccc(F)cc3)cc1)[C@@H]2CO`, with > 10 µM (inactive); and `O=C1CN(S(=O)(=O)Cc2ccccc2)C[C@@H]2[C@H](c3ccc(C#Cc4ccccc4)cc3)[C@H](CO)N12`, with > 10 µM (inactive). Consider `O=C(C[C@@H]1CC[C@@H]2[C@H](COC[C@@H](O)CN2Cc2ccc(Cl)cc2)O1)NCc1ccccc1Cl`, for which the active concentration was > 10 µM (inactive). Consider `CN1C(=O)c2cc(NC(=O)c3cccc(F)c3)ccc2OC[C@H]2O[C@@H](CC(=O)NCC3CCCCC3)CC[C@@H]21`, for which the active concentration is > 10 µM (inactive). Then `CN(C)C(=O)C[C@@H]1CC[C@H]2[C@@H](COC[C@@H](O)CN2CC2CCCC2)O1`, with > 10 µM (inactive). Regarding `CN1C(=O)c2cc(NC(=O)c3cccc(F)c3)ccc2OC[C@@H]2O[C@@H](CC(=O)NCC3CCCCC3)CC[C@H]21`, the active concentration is > 10 µM (inactive). `COc1cc(CN2CC3(CN(C(=O)CN4CCOCC4)C3)c3c(n(C)c4cc(OC)ccc34)[C@@H]2CO)cc(OC)c1`: the active concentration was > 10 µM (inactive). On to `O=S(=O)(c1ccc(F)cc1)N1CCCCN2[C@H](CO)[C@H](c3ccc(-c4cncnc4)cc3)[C@H]2C1`, for which the active concentration was > 10 µM (inactive). Consider `O=C(O)[C@H]1[C@H](CO)[C@H]2Cn3c(ccc(C4=CCCCC4)c3=O)[C@@H]1N2C(=O)Cc1ccccn1`, for which the active concentration is > 10 µM (inactive). For `CN(C)CC(=O)N1CCCCN2[C@@H](CO)[C@@H](c3ccc(/C=C/c4ccccc4)cc3)[C@@H]2C1`, the active concentration was < 10 µM. Turning to `O=C(C[C@@H]1CC[C@H]2[C@@H](COC[C@H](O)CN2C(=O)Nc2ccc(C(F)(F)F)cc2)O1)NCC1CC1`, the active concentration was > 10 µM (inactive). As to `COc1ccc2c3c([nH]c2c1)[C@H](CO)N(C)CC31CCN(C(=O)c2ccccc2F)CC1`, the active concentration is > 10 µM (inactive).

In the case of `CCCC#Cc1ccc([C@H]2[C@H]3CN(C(=O)c4cccnc4)CC(=O)N3[C@H]2CO)cc1`, the active concentration was > 10 µM (inactive). Consider `CN(C)C(=O)c1cccc(-c2ccc([C@H]3[C@H](CO)N4C(=O)CN(C(=O)C5CCC5)C[C@@H]34)cc2)c1`, for which the active concentration was > 10 µM (inactive).

`COc1cccc(C#Cc2ccc([C@H]3[C@H](CO)N4C(=O)CN(C(=O)Cc5cccnc5)C[C@@H]34)cc2)c1`: the active concentration was > 10 µM (inactive).

Take `O=C(C[C@@H]1CC[C@H]2[C@@H](COC[C@H](O)CN2Cc2cc(F)ccc2F)O1)NCc1ccc(F)cc1`: the active concentration was > 10 µM (inactive). For `O=C(C[C@@H]1CC[C@H]2[C@@H](COC[C@@H](O)CN2Cc2cc(F)ccc2F)O1)NCc1ccc(F)cc1`, the active concentration is > 10 µM (inactive). Consider `Cc1ccc(NC(=O)Nc2ccc3c(c2)C(=O)N(C)[C@@H]2CC[C@@H](CC(=O)NCC(F)(F)F)O[C@@H]2CO3)cc1`, for which the active concentration was > 10 µM (inactive). In the case of `CC(C)CC#Cc1ccc([C@H]2[C@@H](CO)N3C(=O)CN(S(=O)(=O)c4cccc(F)c4)C[C@@H]23)cc1`, the active concentration is > 10 µM (inactive). Regarding `CN1C(=O)c2cc(NC(=O)c3cccc(F)c3)ccc2OC[C@@H]2O[C@H](CC(=O)NCC3CCCCC3)CC[C@@H]21`, the active concentration was > 10 µM (inactive). On to `O=C(CC(F)(F)F)N1C[C@@H]2[C@H](c3ccccc31)[C@H](CO)N2CC1CCOCC1`, for which the active concentration is > 10 µM (inactive). Consider `CN1c2ccc(Br)cc2[C@H]2[C@H](CCN2S(=O)(=O)c2cccc(F)c2)[C@@H]1CO`, for which the active concentration was > 10 µM (inactive).

Take `COc1ccc(-c2ccccc2[C@H]2[C@@H](CO)N(C(=O)NC(C)C)[C@H]2C#N)cc1`: the active concentration was > 10 µM (inactive).
